Molecules are shown by their SMILES.

The nature of the series: Human HepG2 cell viability assay in 384 well format. It is filed as toxicity, cell-based. Set-up: dose 125 nL, time 70.5 hour; concentration not given beside the values. Particulars: HepG2 cells, read-out: Inhibition.
Regarding `NS(=O)(=O)CCNC(=O)c1nnn(-c2ccc(F)cc2)c1C1CC1`, the cytotoxicity at 70.5 h was -2.85%.

As to `CN1CCCC1CNC(=O)c1nnn(-c2ccc(F)cc2)c1C1CC1` (stereo not given), the cytotoxicity at 70.5 h came to 22.3%.

As for `NS(=O)(=O)CCNC(=O)c1nnn(-c2ccccc2)c1C1CC1`, the cytotoxicity at 70.5 h was -2.47%.

Take `COc1ccc(C2CCCN2C(=O)c2cc3c([nH]c2=O)CCC3)cc1` (stereo not given): the cytotoxicity at 70.5 h is -2.02%.

Consider `COc1cccc(C2CCCN2C(=O)c2cc3c([nH]c2=O)CCC3)c1` (stereo not given), for which the cytotoxicity at 70.5 h is -2.15%.

As to `CNC(=O)c1cnc(/C=C/c2cc(OC)c(OC)c(OC)c2)s1`, the cytotoxicity at 70.5 h was determined as 3.41%.

Consider `CNC(=O)c1cnc(/C=C/c2cc(OC)cc(OC)c2)s1`, for which the cytotoxicity at 70.5 h was 17.6%.

Turning to `COc1ccc(NC(C)=O)c(N2CCN(C(C)=O)CC2)n1`, the cytotoxicity at 70.5 h was -0.156%.

With `CCS(=O)(=O)N(C)C1CCN(C(=O)c2cccc(Cl)c2)CC1`, the cytotoxicity at 70.5 h is -4.92%.

As for `Cc1csc(NC(=O)CN(C)CC2CCCN2c2cccnn2)n1` (stereo not given), the cytotoxicity at 70.5 h worked out at 3.61%.

Take `CCc1nc(CCNC(=O)NC2CC2)sc1C`: the cytotoxicity at 70.5 h stood at 5.49%.

As for `COC(=O)C1CCN(c2cncc(-n3nc(C)cc3C)n2)CC1`, the cytotoxicity at 70.5 h is 2.18%.

`Cc1cc(CN2CCc3nn(C(C)C)c(=O)cc3C2)no1`: the cytotoxicity at 70.5 h is 5.97%.

For `COCc1nc2cc(NCc3ccncc3)ccc2o1`, the cytotoxicity at 70.5 h stood at 16.6%.

Regarding `CC(CNC(=O)N1CCSCC1)Cc1cccs1` (stereo not given), the cytotoxicity at 70.5 h is 4.95%.

Regarding `COCc1nc2cc(NCc3ccc(C)o3)ccc2o1`, the cytotoxicity at 70.5 h is 0.17%.

On to `CC(C)CCN1CCN(Cc2nc(C3CC3)no2)CC1`, for which the cytotoxicity at 70.5 h was 20.6%.

For `CCN1CCC(CNCc2cc(OC)ccc2OC)C1` (stereo not given), the cytotoxicity at 70.5 h was determined as 5.64%.

For the compound `COCCN1CCN(C(C)C(=O)Nc2ccnn2C(C)C)CC1` (stereo not given), the cytotoxicity at 70.5 h is 1.69%.

`CCc1nc(CCNC(=O)C2CCOC2)sc1C` (stereo not given): the cytotoxicity at 70.5 h is -2.78%.

On to `CC(CNC(=O)N1CCN(c2cnccn2)CC1)Cc1cccs1` (stereo not given), for which the cytotoxicity at 70.5 h is -4.18%.

For the compound `Cc1cc(F)ccc1CN1CCCC2(C1)OCCO2`, the cytotoxicity at 70.5 h was -3.36%.

For `COc1ccc(CNCC2CC2)cc1F`, the cytotoxicity at 70.5 h is -7.42%.

Turning to `COc1cccc(CN(C)C(=O)CN2CCN(CCO)CC2)c1`, the cytotoxicity at 70.5 h was -7.48%.

For `COc1cccc(CN(C)C(=O)CN2CCN(c3nccn3C)CC2)c1`, the cytotoxicity at 70.5 h is -6.12%.

As for `CC1CCN(C(CNC(=O)CCn2cccn2)c2cccs2)CC1` (stereo not given), the cytotoxicity at 70.5 h was -1.29%.

As for `Cc1ccc(CNCc2nnc3n2CCCC3C(F)(F)F)o1` (stereo not given), the cytotoxicity at 70.5 h came out at 6.51%.

For the compound `O=c1oc(-c2cccs2)nn1CC(O)c1ccc(F)cc1` (stereo not given), the cytotoxicity at 70.5 h is -11.2%.

For `NC(=O)C1CCCN1Cc1cccc(NC(=O)c2ccsc2)c1` (stereo not given), the cytotoxicity at 70.5 h is -11.3%.

`CCOc1ncccc1CNC(=O)N1CCCC1c1cc(C)no1` (stereo not given): the cytotoxicity at 70.5 h was -12.6%.

As to `CCSCCC(=O)Nc1ncn(Cc2cccnc2)n1`, the cytotoxicity at 70.5 h is -9.89%.

As for `CCC(C)NC(=O)c1ccccc1-n1cnnn1` (stereo not given), the cytotoxicity at 70.5 h was -11.4%.

In the case of `COc1ccc(-n2cnnc2SCCC#N)cn1`, the cytotoxicity at 70.5 h was -4.7%.

With `CN(C)CCCNC(=O)c1cc(Br)c2c(c1)OCCO2`, the cytotoxicity at 70.5 h was -7.25%.

For the compound `CCc1nc(CNC(=O)Nc2ccc(C(=O)NC)cc2C)cs1`, the cytotoxicity at 70.5 h is -22.3%.

With `O=C(NC1(c2nnn(CCO)n2)CCCC1)c1ccccc1`, the cytotoxicity at 70.5 h is -1.16%.

On to `CN(CCNC(=O)N1CCN(Cc2ccon2)CC1)C1CCCC1`, for which the cytotoxicity at 70.5 h was -1.48%.

On to `CC(NC(=O)NCCCn1cccn1)c1cccnc1` (stereo not given), for which the cytotoxicity at 70.5 h was determined as 18.1%.

Consider `COC(=O)CCN1CCCC1c1cccc2c1OCCO2` (stereo not given), for which the cytotoxicity at 70.5 h is -6.05%.

As for `Cc1cc(CN(C)C2CCCN(c3cccnn3)C2)on1` (stereo not given), the cytotoxicity at 70.5 h was determined as 28.9%.

Regarding `CC(C)N(C)CC(=O)NC1CCc2nccn2C1` (stereo not given), the cytotoxicity at 70.5 h turned out to be 17.3%.

As to `COCCc1noc(CN(C)C2CCCN(c3ccc(C)nn3)C2)n1` (stereo not given), the cytotoxicity at 70.5 h worked out at 24.4%.

Regarding `Cc1cnn(C2CN(CC(O)c3ccc(F)cc3)C2)c1` (stereo not given), the cytotoxicity at 70.5 h is -5.26%.

Turning to `COc1cccc(S(=O)(=O)CCN2CCCCC2)c1`, the cytotoxicity at 70.5 h was -15.7%.

In the case of `O=C(NCCc1csc(N2CCCC2)n1)N(C1CCCC1)C1CC1`, the cytotoxicity at 70.5 h was -2.69%.

Regarding `Cc1ccc2ncnc(N3CCOCC3c3c(C)nn(C)c3C)c2c1` (stereo not given), the cytotoxicity at 70.5 h was -11.7%.

Consider `CCN(CC1CN(Cc2ncc[nH]2)CCO1)c1cccnn1` (stereo not given), for which the cytotoxicity at 70.5 h is -6.7%.

With `O=C(C1CC(=O)N(c2ccccc2Br)C1)N1CCC2(CC1)OCCO2` (stereo not given), the cytotoxicity at 70.5 h is -6.47%.

Take `CCOC1CCN(C(=O)c2c(Cl)c3ccccc3n2C)CC1`: the cytotoxicity at 70.5 h is -7.26%.

In the case of `Cc1ccsc1CNC(=O)NC1CCCc2c1cnn2CCO` (stereo not given), the cytotoxicity at 70.5 h was -6.7%.

Consider `CCS(=O)(=O)c1ccc(N2CCC(NC(=O)c3cnn(C)c3)CC2)cc1`, for which the cytotoxicity at 70.5 h is -4.33%.

On to `O=C(NCC(F)(F)F)NC1CCCc2c1cnn2CCO` (stereo not given), for which the cytotoxicity at 70.5 h is -8.96%.

Consider `CC(C)Oc1ccc(CSc2nnc(CN3CCCC3=O)o2)cc1`, for which the cytotoxicity at 70.5 h was -7.62%.

Regarding `CC(O)CN1CCN(C(=O)c2cnn(-c3ccccc3F)c2)CC1` (stereo not given), the cytotoxicity at 70.5 h was -6.92%.

Regarding `Cc1nn(CCO)c(C)c1CNC1CCC(C)(C)c2ccccc21` (stereo not given), the cytotoxicity at 70.5 h was -5.72%.

With `CCCC(NC(=O)c1cc(C)n(C2CC2)c1C)c1nnn[nH]1` (stereo not given), the cytotoxicity at 70.5 h was -0.607%.

Take `c1csc(COC[C@H]2CCC[C@]23CN(Cc2ccoc2)CCO3)n1`: the cytotoxicity at 70.5 h was -9.63%.

With `COCCO[C@H]1CCN(C(=O)c2ccsc2)[C@H]1Cc1cnn(C)c1`, the cytotoxicity at 70.5 h was -11.9%.

Regarding `O=C(CC1CC1)N1CCC2(COCc3cnc(N4CCOCC4)nc32)C1` (stereo not given), the cytotoxicity at 70.5 h is -6.88%.

On to `O=C(c1cccs1)N1CCC2(CC1)CN(c1ccsc1)C(=O)CO2`, for which the cytotoxicity at 70.5 h is -8.69%.

For the compound `O=C(CCO)N1CC[C@@H]2CN(C(=O)c3ccco3)CCO[C@@H]2C1`, the cytotoxicity at 70.5 h is -4.78%.

Take `CN(C)[C@@H]1CCN(C(=O)c2ccccn2)[C@H]1Cc1cnn(C)c1`: the cytotoxicity at 70.5 h was -5.7%.

Take `c1cc(CN2CC[C@H]3O[C@@H](COCC4CCOCC4)CC[C@H]32)ccn1`: the cytotoxicity at 70.5 h was determined as 23.2%.

For `Cn1nnc2c1CCN(S(C)(=O)=O)C2COCc1ccccc1` (stereo not given), the cytotoxicity at 70.5 h was 13.6%.

For `O=C(c1ccco1)N1CC[C@@H]2[C@H]1CCC(=O)N2c1ccccc1`, the cytotoxicity at 70.5 h was -15.1%.

On to `Cn1cccc1C(=O)NCc1cn2c(n1)CN(c1ncccn1)CC2`, for which the cytotoxicity at 70.5 h was -12.8%.

Take `CCS(=O)(=O)N1CCC2(CN(Cc3ccc(C)o3)C2)C1`: the cytotoxicity at 70.5 h is -13.4%.

On to `CCS(=O)(=O)N1CCC2(CCN(Cc3ccc(C)o3)C2)C1` (stereo not given), for which the cytotoxicity at 70.5 h was found to be 13%.

As for `Cn1cccc1C(=O)NCc1cn2c(n1)CN(S(=O)(=O)C1CC1)CC2`, the cytotoxicity at 70.5 h was -10.3%.

In the case of `COCC1CN(C(=O)c2ccco2)Cc2nccn2C1` (stereo not given), the cytotoxicity at 70.5 h is -9.63%.

Take `COCCC(=O)N1CCN(CC2CC2)c2ncccc2C1`: the cytotoxicity at 70.5 h was 8.88%.

As for `COCCC(=O)N1CCc2nc(N3CCOCC3)nc(NC(C)C)c2C1`, the cytotoxicity at 70.5 h was -17%.

`O=C(C1CCOCC1)N1CCN(CC2CC2)c2ncccc2C1`: the cytotoxicity at 70.5 h is -14.2%.

In the case of `COCCC(=O)N1CCC2(CN(Cc3cccc(Cl)c3)C2)C1`, the cytotoxicity at 70.5 h worked out at 33.3%.

For the compound `O=c1ccc2c(n1CC1CC1)CCC(NS(=O)(=O)C1CC1)C2` (stereo not given), the cytotoxicity at 70.5 h was found to be 21.2%.

Regarding `O=C(N1CCCC1)N1CCCC2(CCN(c3ccsc3)C2=O)C1` (stereo not given), the cytotoxicity at 70.5 h was -7.85%.

Regarding `CN(C)C(=O)CN1CCC2(COCc3cnc(N4CCOCC4)nc32)C1` (stereo not given), the cytotoxicity at 70.5 h was 19.8%.

As to `CN1C(=O)C[C@H]2[C@H]1CCN2Cc1cccc(C#N)c1`, the cytotoxicity at 70.5 h is -11.7%.

Consider `CN(C)CCNC(=O)c1cc(-c2cnc(N3CCOCC3)nc2)cn1C`, for which the cytotoxicity at 70.5 h was -8.38%.

On to `Cc1noc(C)c1CN1C[C@@H]2COC[C@H](C(=O)N3CCOCC3)[C@@H]2C1`, for which the cytotoxicity at 70.5 h was -8.43%.

Take `c1csc(CN2CCn3c(Cn4cncn4)cnc3C2)c1`: the cytotoxicity at 70.5 h is 27.5%.

On to `Cn1nnc2c1CCN(CC1CC1)C2COCC1CC1` (stereo not given), for which the cytotoxicity at 70.5 h was -12.8%.

As to `Cc1ccc(CN2CCc3c(nnn3C)C2COCc2ccccc2)s1` (stereo not given), the cytotoxicity at 70.5 h is -7.66%.

In the case of `Cc1occc1C(=O)N1Cc2nccn2CC(CN(C)C)C1` (stereo not given), the cytotoxicity at 70.5 h is -8.13%.

Take `O=C(c1ccco1)N1CCOC2(COCCN(c3ncccn3)C2)C1` (stereo not given): the cytotoxicity at 70.5 h is -14.8%.

Regarding `COc1ccc(CN2CCCn3nnc(COCC4CC4)c3C2)cc1`, the cytotoxicity at 70.5 h is -12.2%.

With `Fc1ccc(CN2CCCn3nnc(COCC4CC4)c3C2)cc1`, the cytotoxicity at 70.5 h turned out to be 16.6%.

As for `COCCN1CCN(C(=O)N2CCCC2)Cc2ccc(C)nc21`, the cytotoxicity at 70.5 h is 24.9%.

For `COCCC(=O)N1CCC2(CCN(Cc3cccc(F)c3)CC2)CC1`, the cytotoxicity at 70.5 h was -5.26%.

Turning to `COC[C@H]1CC[C@@H]2[C@@H](CCN2Cc2ccccn2)O1`, the cytotoxicity at 70.5 h was 22.1%.

For `O=C(c1cnc2n1CCN(Cc1ccccc1)C2)N1CCCC1`, the cytotoxicity at 70.5 h is -9.37%.

Turning to `N#Cc1cccc(CN2CC[C@@H]3[C@@H]2CC(=O)N3CCN2CCCC2)c1`, the cytotoxicity at 70.5 h was -9.81%.

On to `O=C(c1cccnc1)N1CCN2C[C@H](OCc3ccccc3)C[C@H]2C1`, for which the cytotoxicity at 70.5 h was -5.95%.

Regarding `O=C(c1ccnnc1)N1CCN2C[C@H](OCc3cccnc3)C[C@H]2C1`, the cytotoxicity at 70.5 h is -8.22%.

As for `CN(C)CCN1CCc2c(nnn2C)C1COCc1ccccc1` (stereo not given), the cytotoxicity at 70.5 h was 10.5%.

Consider `CC(=O)NCC(=O)N1CCN(CCN(C)C)c2ncccc2C1`, for which the cytotoxicity at 70.5 h was -14.2%.

As to `CN(C)C(=O)CN1CCC2(CCCN(Cc3cccnc3)C2)C1=O` (stereo not given), the cytotoxicity at 70.5 h was -12%.

`c1cncc(COCC2CC[C@H]3[C@H](CCN3CC3CCOCC3)O2)c1` (stereo not given in full): the cytotoxicity at 70.5 h turned out to be 24.3%.

For `O=C(N1CCCC1)N1CCC2(CC1)COCCN(Cc1cccnc1)C2`, the cytotoxicity at 70.5 h is -4.16%.

For `Cc1cccc(CN2CCOC3(COCCN(CCN(C)C)C3)C2)n1` (stereo not given), the cytotoxicity at 70.5 h is -3.04%.

The record behind these values is ChEMBL document CHEMBL3507680, “University of Dundee, Gates Library screen for HepG2 cell viability”.
